Experimental data reported in PMC6470675, “Design and Synthesis of New Quinoxaline Derivatives as Anticancer Agents and Apoptotic Inducers” (Molecules, 2019).

Key:
[1] = system: three tumor cell lines (HCT116, Hep G2 and MCF-7); assay: In vitro anti-cancer activity stated for the tested cell lines together; format: cell-based, human; details: HCT116, Hep G2 and MCF-7 together
Procedure: (§1) The targeted compounds were tested for their in-vitro anti-cancer activity against three tumor cell lines (HCT116, Hep G2 and MCF-7). Doxorubicin was included in the experiments as a reference cytotoxic compound. Exponentially growing cells from different cancer cell lines were trypsinized, counted and seeded at the appropriate densities into 96-well microtiter plates. Cells then were incubated in a humidified atmosphere at 37 °C for 24 h. Then, cells were exposed to different concentrations of compounds for 72 h. Then the viability of treated cells was determined using MTT technique (described latter).
(§2) Three cancer cell lines including human colon carcinoma (HCT116), human breast adenocarcinoma (MCF-7) and human hepatocellular carcinoma (Hep G2), were purchased from American Type Cell Culture Collection (ATCC, Manassas, VA, USA) and grown on the appropriate growth medium Dulbecco’s modified Eagle’s medium (DMEM) or Roswell Park Memorial Institute medium (RPMI 1640) supplemented with […] of streptomycin, 100 units/mL of penicillin and 10% of heat-inactivated fetal bovine serum in a humidified, 5% (v/v) CO2 atmosphere at 37 °C [34]. Cytotoxicity assay by 3-[4,5-dimethylthiazole-2-yl]-2,5-diphenyltetrazolium bromide (MTT).
Exponentially growing cells from different cancer cell lines were trypsinized, counted and seeded at the appropriate densities (2000–1000 cells/0.33 cm^2 well) into 96-well microtiter plates. Cells then were incubated in a humidified atmosphere at 37 °C for 24 h. Then, cells were exposed to different concentrations of compounds (0.1, 10, 100, 1000 µM) for 72 h. Then the viability of treated cells was determined using MTT technique as follow. Media were removed; cells were incubated with 200 μL of 5% MTT solution/well (Sigma Aldrich, Darmstadt, Germany) and were allowed to metabolize the dye into a colored-insoluble formazan crystal for 2 h. […] Absorbance were measured at 570 nm using a Stat Fax^R 4200 plate reader (Awareness Technology, Inc., Awareness Technology, FL, USA). […]

[2] = system: MCF-7 human breast adenocarcinoma cell line; assay: In vitro cell proliferation (MTT) assay, MCF-7; format: cell-based; details: Homo sapiens, MCF7; MTT, 72 h exposure
Procedure: as §1, §2
(§3) Exponentially growing cells from different cancer cell lines were trypsinized, counted and seeded at the appropriate densities (2000–1000 cells/0.33 cm^2 well) into 96-well microtiter plates. Cells then were incubated in a humidified atmosphere at 37 °C for 24 h. Then, cells were exposed to different concentrations of compounds (0.1, 10, 100, 1000 µM) for 72 h. Then the viability of treated cells was determined using MTT technique as follow. Media were removed; cells were incubated with 200 μL of 5% MTT solution/well (Sigma Aldrich, Darmstadt, Germany) and were allowed to metabolize the dye into a colored-insoluble formazan crystal for 2 h. The remaining MTT solution were discarded from the wells and the formazan crystals were dissolved in 200 µl/well acidified isopropanol for 30 min, covered with aluminum foil and with continuous shaking using a MaxQ 2000 plate shaker (Thermo Fisher Scientific Inc, Waltham, MA, USA) at room temperature. Absorbance were measured at 570 nm using a Stat Fax^R 4200 plate reader (Awareness Technology, Inc., Awareness Technology, FL, USA). The cell viability was expressed as percentage of control and the concentration that induces 50% of maximum inhibition of cell proliferation (IC50) were determined using Graph Pad Prism version 5 software (Graph Pad Software Inc, San Diego, CA, USA) (1,2).

VEGFR-2 [3] = target: T1, VEGFR-2 (Homo sapiens, UniProt P35968); assay: In vitro VEGFR-2 inhibition assay (Kinase-Glo Plus luminescence); format: biochemical; details: for inhibition at 10 µM: single concentration of 10 µM, read-out: % of VEGFR-2 Inhibition
T1 construct: purchased Bio Science Corporation (BPS), San Diego, CA, USA
T1 sequence (P35968 20-1356): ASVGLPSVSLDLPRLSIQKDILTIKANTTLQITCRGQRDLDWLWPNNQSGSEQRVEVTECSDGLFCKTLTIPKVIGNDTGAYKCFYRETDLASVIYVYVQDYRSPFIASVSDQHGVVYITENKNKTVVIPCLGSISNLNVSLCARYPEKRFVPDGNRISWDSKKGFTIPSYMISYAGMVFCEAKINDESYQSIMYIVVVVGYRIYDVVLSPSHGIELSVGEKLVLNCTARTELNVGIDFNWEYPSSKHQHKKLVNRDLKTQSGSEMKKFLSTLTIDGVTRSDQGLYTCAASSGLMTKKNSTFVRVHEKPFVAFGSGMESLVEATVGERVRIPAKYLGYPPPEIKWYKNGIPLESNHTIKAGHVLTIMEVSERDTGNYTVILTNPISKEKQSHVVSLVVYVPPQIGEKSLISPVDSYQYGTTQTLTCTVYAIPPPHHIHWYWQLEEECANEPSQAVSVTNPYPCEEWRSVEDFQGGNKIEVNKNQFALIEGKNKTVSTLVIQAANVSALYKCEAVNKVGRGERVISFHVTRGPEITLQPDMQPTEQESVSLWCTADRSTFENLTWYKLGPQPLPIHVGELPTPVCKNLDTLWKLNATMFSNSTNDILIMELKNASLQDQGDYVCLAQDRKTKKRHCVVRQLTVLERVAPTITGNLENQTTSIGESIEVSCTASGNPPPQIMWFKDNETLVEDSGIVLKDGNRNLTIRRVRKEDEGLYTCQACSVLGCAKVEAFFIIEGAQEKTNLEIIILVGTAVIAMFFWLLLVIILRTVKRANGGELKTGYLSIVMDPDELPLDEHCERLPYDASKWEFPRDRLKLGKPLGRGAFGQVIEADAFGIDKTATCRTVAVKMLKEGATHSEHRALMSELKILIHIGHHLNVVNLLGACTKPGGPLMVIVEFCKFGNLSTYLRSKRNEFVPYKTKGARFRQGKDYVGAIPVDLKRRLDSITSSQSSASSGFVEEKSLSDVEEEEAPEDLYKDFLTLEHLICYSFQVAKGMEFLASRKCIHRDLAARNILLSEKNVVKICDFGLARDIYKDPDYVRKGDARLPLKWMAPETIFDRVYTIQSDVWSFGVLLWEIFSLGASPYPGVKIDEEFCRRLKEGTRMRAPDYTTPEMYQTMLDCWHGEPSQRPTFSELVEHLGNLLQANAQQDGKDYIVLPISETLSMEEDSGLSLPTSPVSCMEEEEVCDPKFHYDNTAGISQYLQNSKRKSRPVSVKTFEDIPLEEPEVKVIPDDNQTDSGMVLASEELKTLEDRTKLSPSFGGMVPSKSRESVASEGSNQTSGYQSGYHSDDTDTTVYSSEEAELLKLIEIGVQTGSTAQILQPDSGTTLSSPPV
Procedure: In an attempt to investigate the possible mechanism of action of the synthesized compounds based on structural similarity with sorafenib, all of them were tested for VEGFR-2 inhibitory activity at Bio Science Corporation (BPS, San Diego, CA, USA). The assay was performed using the Kinase-Glo Plus luminescence kinase assay kit (Promega, San Diego, CA, USA). It measures kinase activity by quantitating the amount of ATP remaining in solution following a kinase reaction. […].
The in-vitro enzyme inhibition determination for the synthesized compounds was carried out at Bio Science Corporation (BPS)-San Diego, CA, USA. The assay was performed using Kinase-Glo Plus luminescence kinase assay kit (Promega), where the kinase activity was measured by quantitating the amount of ATP remaining in solution following a kinase reaction. The luminescent signal from the assay is correlated with the amount of ATP present and is inversely correlated with the amount of kinase activity. Our compounds were diluted with 10% DMSO and 5 µL of the dilution was added to a 50 µL reaction so that the final concentration of DMSO is 1% in all of reactions. All of the enzymatic reactions were conducted at 30 °C for 40 min. The 50 µL reaction mixture contains 40 mM Tris, pH 7.4, 10 mM MgCl2, 0.1 mg/mL BSA, 1 mM DTT, 10 µM ATP, Kinase substrate and the enzyme. After the enzymatic reaction, 50 µL of Kinase-Glo Plus Luminescence kinase assay solution (Promega San Diego, CA, USA) was added to each reaction and incubate the plate for 5 min at room temperature. Luminescence signal was measured using a BioTek Synergy 2 microplate reader.
Kinase activity assays were performed in duplicate at each concentration. The luminescence data were analyzed using the computer software, Graphpad Prism. The difference between luminescence intensities in the absence of Kinase (Lut) and in the presence of Kinase (Luc) was defined as 100% activity (Lut − Luc). Using luminescence signal (Lu) in the presence of the compound, % activity was calculated as:% activity = {(Lut − Lu)(Lut − Luc)} × 100% where Lu = the luminescence intensity in the presence of the compound.

[4] = system: Hep G2 human hepatocellular carcinoma cell line; assay: In vitro cell proliferation (MTT) assay, Hep G2; format: cell-based; details: for IC50: Homo sapiens, HepG2, MTT, 72 h exposure
Procedure: as §1, §2, §3

[5] = system: HCT116 human colon carcinoma cell line; assay: In vitro cell proliferation (MTT) assay, HCT116; format: cell-based; details: for IC50: Homo sapiens, HCT-116, MTT, 72 h exposure
Procedure: as §1, §2, §3

HCT116 cells [6] = assay: Cell cycle analysis by flow cytometry; format: cell-based, human; details: 2.5 µM
Procedure: The effect of compound VIIIc on the normal cell cycle progression was characterized using flow cytometric analysis of the DNA ploidy in HCT116 cells Figure 3. […] The observed increase in pre-G cell population may imply DNA fragmentation and apoptosis as a potential mechanism for VIIIc-induced cancer cell death.
HCT116 cells at a density of 4 × 10^6 cell/T 75 flask were exposed to 1-(4-Chlorophenyl)-3-(4-((3-methylquinoxalin-2-yl)amino)phenyl)urea VIIIc at its IC50 concentration for 24 and 48 h. The cells then were collected by trypsinization, washed with phosphate buffered saline (PBS), and fixed in ice-cold absolute alcohol. Thereafter, cells were stained, using Cycle test ^TM Plus DNA Reagent Kit (BD Biosciences, San Jose, CA, USA), according to the manufacturer’s instructions. Cell cycle distribution was determined using a FACS Calibur flow cytometer (BD Biosciences).

HCT116 cells [7] = assay: Annexin V-FITC/PI apoptosis determination; format: cell-based, human; details: IC50 (2.5 µM), 24 h and 48 h, compared to DMSO treated cells
Text: For further investigation of the ability of compound VIIIc to induce apoptosis, an Annexin V (conjugated to FITC) apoptosis detection kit was employed. This assay detects phosphatidylserine (PS) expressed on the surface of apoptotic cells and fluoresces green after interacting with the labeled annexin V. During early apoptosis, membrane asymmetry is lost, and PS translocates from the cytoplasmic side of the membrane to the external leaflet. Propidium iodide (PI), the counterstain used in this assay, has the ability to cross only compromised membranes to intercalate into the DNA. Therefore, PI is used to detect the late stages of apoptosis by presence of red fluorescence.
Apoptosis was determined by staining cells with Annexin V–fluorescein isothiocyanate (FITC) and counterstaining with propidium iodide (PI) using the Annexin V–FITC/PI apoptosis detection kit (BD PharMingen, San Diego, CA, USA) according to the manufacturer’s instructions. Briefly, 4 × 10^6 cell/T 75 flask were exposed to compound VIIIc at its IC50 concentration for 24 and 48 h. The cells then were collected by trypsinization and 0.5 × 10^6 cells were washed twice with phosphate-buffered saline (PBS) and stained with 5 μL Annexin V–FITC and 5 μL PI in 1× binding buffer (BD PharMingen) for 15 min at room temperature in the dark. Analyses were performed using FACS Calibur flow cytometer (BD Biosciences).

[8] = system: fibroblast-like fetal lung cell line (WI-38); assay: In vitro MTT cytotoxicity assay on normal WI-38 cells
Procedure: Cell Line cells were obtained from American Type Culture Collection, cells were cultured using DMEM (Invitrogen/Life Technologies, Waltham, MA, USA) supplemented with 10% FBS (Hyclone, Waltham, MA, USA), 10 μg/mL of insulin (Sigma), and 1% penicillin-streptomycin. All of the other chemicals and reagents were from Sigma, or Invitrogen. Plate cells (cells density 1.2–1.8 × 10,000 cells/well) in a volume of 100 µL complete growth medium + 100 μL of the tested compound per well in a 96-well plate for 24 h before the MTT assay.

VEGFR-2 [9] = target: T1, VEGFR-2; details: cited from earlier work

Compound | IC50 [2] [µM] | inhibition at 10 µM (VEGFR-2 [3]) [%] | IC50 [4] [µM] | melting point [°C] | IC50 [5] [µM] | activity against VEGFR-2 (in words) (VEGFR-2 [3]; 10 µM) | activity against the tested cell lines (in words) [1] | anti-cancer activity against HCT116 cell line (in words) [5] | effect on cell cycle profile (in words) (HCT116 cells [6]; 24 h) | effect on cell cycle profile (in words) (HCT116 cells [6]; 48 h) | annexin-V positive cells (in words) (HCT116 cells [7]) | selectivity as anti-cancer agent (in words), from WI-38 IC50 [8] | IC50 ([8]; read-out: IC50 on WI-38 cell line, MTT, normal cell line) [µM] | anti-cancer activity against Hep G2 cell line (in words) [4] | inhibition percentage against VEGFR-2 (VEGFR-2 [9]) [%]
Cc1nc2ccccc2nc1Nc1cccc(C(=O)Nc2ccc(Cl)cc2)c1 [VIb, N-(4-Chlorophenyl)-3-((3-methylquinoxalin-2-yl)amino)benzamide] | 692 |  | 955 | 240 to 241 | 537 |  | no significant inhibitory activity |  |  |  |  |  |  |  | 
O=C(Nc1ccccc1)Nc1ccc(Nc2nc3ccccc3nc2Cl)cc1 [XVIIb, 1-(4-((3-Chloroquinoxalin-2-yl)amino)phenyl)-3-phenylurea] | 148 | 10 | 513 | 280 to 281 | 170 |  |  |  |  |  |  |  |  |  | 
COc1ccc(Nc2nc3ccc(NC(=O)c4ccccc4C(=O)O)cc3[nH]c2=O)cc1 [Compound 4] |  |  |  |  |  |  |  |  |  |  |  |  |  |  | 69
COc1ccc(C(=O)Nc2ccc(Nc3nc4ccccc4nc3Cl)cc2)cc1 [XVIc, N-(4-((3-Chloroquinoxalin-2-yl)amino)phenyl)-4-methoxybenzamide] | > 1000 | 4 | > 1000 | 235 to 236 | > 1000 |  |  |  |  |  |  |  |  |  | 

Continued, in another order:

IC50 [2] [µM] | inhibition at 10 µM (VEGFR-2 [3]) [%] | IC50 [4] [µM] | melting point [°C] | IC50 [5] [µM] | activity against VEGFR-2 (in words) (VEGFR-2 [3]; 10 µM) | Compound | activity against the tested cell lines (in words) [1] | anti-cancer activity against HCT116 cell line (in words) [5] | effect on cell cycle profile (in words) (HCT116 cells [6]; 24 h) | effect on cell cycle profile (in words) (HCT116 cells [6]; 48 h) | annexin-V positive cells (in words) (HCT116 cells [7]) | selectivity as anti-cancer agent (in words), from WI-38 IC50 [8] | IC50 ([8]; read-out: IC50 on WI-38 cell line, MTT, normal cell line) [µM] | anti-cancer activity against Hep G2 cell line (in words) [4] | inhibition percentage against VEGFR-2 (VEGFR-2 [9]) [%]
21.4 | 7 | 27.5 | 283 to 285 | 15.5 |  | O=C(Nc1ccc(Cl)cc1)c1cccc(Nc2nc3ccccc3nc2Cl)c1 [Compound XVb, N-(4-Chlorophenyl)-3-((3-chloroquinoxalin-2-yl)amino)benzamide] | moderate to weak activities |  |  |  |  |  |  |  | 
55 | 9 | > 1000 | > 300 | > 1000 |  | O=[N+]([O-])c1ccc(S(=O)(=O)Nc2ccc(Nc3nc4ccccc4nc3Cl)cc2)cc1 [XVIIIb, N-(4-((3-Chloroquinoxalin-2-yl)amino)phenyl)-4-nitrobenzenesulfonamide] |  |  |  |  |  |  |  |  | 
10.2 | 3 | 24.5 | 180 to 182 | 12 |  | Cc1nc2ccccc2nc1Nc1ccc(NS(=O)(=O)c2ccc([N+](=O)[O-])cc2)cc1 [IXb, N-(4-((3-Methylquinoxalin-2-yl)amino)phenyl)-4-nitrobenzenesulfonamide] |  |  |  |  |  |  |  |  | 
138 | 4 | 115 | 234 to 235 | 27.5 |  | Cc1nc2ccccc2nc1Nc1ccc(NC(=O)c2ccc(Cl)cc2)cc1 [Compound VIIb, 4-Chloro-N-(4-((3-methylquinoxalin-2-yl)amino)phenyl)benzamide] |  | weak activity |  |  |  |  |  |  | 
9 | 7 | 22 |  | 2.5 | weak activity | Cc1nc2ccccc2nc1Nc1ccc(NC(=O)Nc2ccc(Cl)cc2)cc1 [Compound VIIIc, 1-(4-Chlorophenyl)-3-(4-((3-methylquinoxalin-2-yl)amino)phenyl)urea] | promising activity |  | increase in G1 phase | cell cycle arrest at G2/M phase boundary | increased the percentage of annexin-V positive cells | moderate selectivity | 97.2 ± 5.66 | moderate activity | 
